From patent US10233173B2, “Substituted 1,2,3-triazoles as NR2B-selective NMDA modulators” (JANSSEN PHARMACEUTICA NV, priority 2016, dated 2019)

target: human GluN1/GluN2B NMDA receptors (Homo sapiens, UniProt Q05586+Q13224); assay: Cell-based calcium flux (FLIPR) assay on cloned human NR1/NR2B ion channels expressed in mammalian cells; settings: standard assay; human GluN1/GluN2B, calcium flux (FLIPR), glutamate ~EC80
Summary of the method: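 Calcium influx followed by FLIPR fluorescence after 5 min compound exposure and a further 5 min co-agonist challenge: 10 μM glycine with glutamate at ~EC80 (standard) or EC40 (HTS).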

human GluN1/GluN2B NMDA receptors, sequence (Q13224 27-1484, other chains not shown): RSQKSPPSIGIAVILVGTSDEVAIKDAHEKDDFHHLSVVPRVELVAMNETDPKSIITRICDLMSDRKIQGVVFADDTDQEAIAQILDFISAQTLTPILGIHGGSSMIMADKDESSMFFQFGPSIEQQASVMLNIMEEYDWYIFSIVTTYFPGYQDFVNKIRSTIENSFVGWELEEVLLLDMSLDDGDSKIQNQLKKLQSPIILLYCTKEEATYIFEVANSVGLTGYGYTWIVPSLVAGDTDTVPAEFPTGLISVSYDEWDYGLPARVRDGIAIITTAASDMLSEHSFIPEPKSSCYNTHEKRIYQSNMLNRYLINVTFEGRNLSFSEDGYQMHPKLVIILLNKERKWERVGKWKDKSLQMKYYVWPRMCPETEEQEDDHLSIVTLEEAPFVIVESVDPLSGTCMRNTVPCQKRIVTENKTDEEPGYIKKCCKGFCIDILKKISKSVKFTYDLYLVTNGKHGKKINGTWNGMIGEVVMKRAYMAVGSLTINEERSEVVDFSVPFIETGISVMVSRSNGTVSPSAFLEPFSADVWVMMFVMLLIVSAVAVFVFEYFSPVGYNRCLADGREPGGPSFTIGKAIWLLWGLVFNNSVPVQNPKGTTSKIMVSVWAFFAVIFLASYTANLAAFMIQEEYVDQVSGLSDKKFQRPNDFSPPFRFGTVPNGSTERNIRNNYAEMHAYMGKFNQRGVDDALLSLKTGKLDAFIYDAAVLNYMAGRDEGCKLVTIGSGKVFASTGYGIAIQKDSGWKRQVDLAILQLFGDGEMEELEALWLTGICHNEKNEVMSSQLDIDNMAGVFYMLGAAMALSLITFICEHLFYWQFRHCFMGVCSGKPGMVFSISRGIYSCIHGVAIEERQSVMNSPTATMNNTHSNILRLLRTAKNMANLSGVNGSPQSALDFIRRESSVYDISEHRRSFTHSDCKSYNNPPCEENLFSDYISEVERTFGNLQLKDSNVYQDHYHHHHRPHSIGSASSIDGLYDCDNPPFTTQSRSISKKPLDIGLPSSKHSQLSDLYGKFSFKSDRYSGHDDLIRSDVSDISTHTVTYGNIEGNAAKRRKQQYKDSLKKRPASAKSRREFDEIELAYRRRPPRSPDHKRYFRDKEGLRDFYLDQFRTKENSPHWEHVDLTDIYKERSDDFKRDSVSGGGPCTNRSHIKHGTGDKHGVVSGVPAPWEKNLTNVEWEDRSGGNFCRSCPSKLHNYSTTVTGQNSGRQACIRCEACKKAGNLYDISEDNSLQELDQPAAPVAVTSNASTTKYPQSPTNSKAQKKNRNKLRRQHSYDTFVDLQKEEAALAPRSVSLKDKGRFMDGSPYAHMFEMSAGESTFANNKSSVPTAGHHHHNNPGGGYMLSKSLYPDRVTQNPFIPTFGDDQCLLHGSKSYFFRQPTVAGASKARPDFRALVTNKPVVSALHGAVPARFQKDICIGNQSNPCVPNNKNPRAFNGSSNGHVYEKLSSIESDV

Structure (SMILES) | IC50
Cc1cnc(NCc2cn(-c3ccc(F)c(C(F)F)c3)nn2)nc1C [Example 217, N-((1-(3-(Difluoromethyl)-4-fluorophenyl)-1H-1,2,3-triazol-4-yl)methyl)-4,5-dimethylpyrimidin-2-amine] | 0.012 µM
Cc1nc(NCc2cn(-c3ccc(F)c(C(F)F)c3)nn2)ncc1Cl [Example 218, 5-Chloro-N-((1-(3-(difluoromethyl)-4-fluorophenyl)-1H-1,2,3-triazol-4-yl)methyl)-4-methylpyrimidin-2-amine] | 0.011 µM
Cn1nccc1NCc1cn(-c2ccc(F)c(C(F)F)c2)nn1 [Example 219, N-((1-(3-(Difluoromethyl)-4-fluorophenyl)-1H-1,2,3-triazol-4-yl)methyl)-1-methyl-1H-pyrazol-5-amine] | > 10 µM
Cn1ccnc1NCc1cn(-c2ccc(F)c(C(F)F)c2)nn1 [Example 220, N-((1-(3-(Difluoromethyl)-4-fluorophenyl)-1H-1,2,3-triazol-4-yl)methyl)-1-methyl-1H-imidazol-2-amine] | 3.65 µM
Fc1ccc(-n2cc(CNc3ccccn3)nn2)cc1OC(F)F [Example 221, N-((1-(3-(Difluoromethoxy)-4-fluorophenyl)-1H-1,2,3-triazol-4-yl)methyl)pyridin-2-amine] | 0.724 µM
Cc1cnc(NCc2cn(-c3ccc(F)c(OC(F)F)c3)nn2)nc1 [Example 222, N-((1-(3-(Difluoromethoxy)-4-fluorophenyl)-1H-1,2,3-triazol-4-yl)methyl)-5-methylpyrimidin-2-amine] | 0.064 µM
Cn1nccc1NCc1cn(-c2ccc(F)c(OC(F)F)c2)nn1 [Example 223, N-((1-(3-(Difluoromethoxy)-4-fluorophenyl)-1H-1,2,3-triazol-4-yl)methyl)-1-methyl-1H-pyrazol-5-amine] | 11.8 µM
Cc1cnc(N[C@H](C)c2cn(-c3ccc(Cl)c(OC(F)F)c3)nn2)nc1 [Example 224, N-[(1R)-1-[1-[4-Chloro-3-(difluoromethoxy)phenyl]triazol-4-yl]ethyl]-5-methyl-pyrimidin-2-amine] | 0.121 µM
Clc1ccc(-n2cc(COc3ncc(Cl)cn3)nn2)cc1 [Example 225, 5-Chloro-2-[[1-(4-chlorophenyl)triazol-4-yl]methoxy]pyrimidine] | 0.07 µM
FC(F)(F)c1cnc(OCc2cn(-c3ccc(Cl)cc3)nn2)nc1 [Example 226, 2-[[1-(4-Chlorophenyl)triazol-4-yl]methoxy]-5-(trifluoromethyl)pyrimidine] | 0.155 µM
FC(F)Oc1cnc(OCc2cn(-c3ccc(Cl)cc3)nn2)nc1 [Example 227, 2-[[1-(4-Chlorophenyl)triazol-4-yl]methoxy]-5-(difluoromethoxy)pyrimidine] | 0.151 µM
Fc1cccc(-n2cc(COc3ncccn3)nn2)c1 [Example 228, 2-[[1-(3-Fluorophenyl)triazol-4-yl]methoxy]pyrimidine] | 5.65 µM
Fc1cnc(OCc2cn(-c3cccc(F)c3)nn2)nc1 [Example 229, 5-Fluoro-2-[[1-(3-fluorophenyl)triazol-4-yl]methoxy]pyrimidine] | 2.98 µM
COc1cnc(OCc2cn(-c3cccc(F)c3)nn2)nc1 [Example 230, 2-[[1-(3-Fluorophenyl)triazol-4-yl]methoxy]-5-methoxy-pyrimidine] | 0.275 µM
Fc1cccc(-n2cc(COc3ncc(Cl)cn3)nn2)c1 [Example 231, 5-Chloro-2-[[1-(3-fluorophenyl)triazol-4-yl]methoxy]pyrimidine] | 0.389 µM
Cc1cnc(OCc2cn(-c3cccc(F)c3)nn2)nc1 [Example 232, 2-[[1-(3-Fluorophenyl)triazol-4-yl]methoxy]-5-methyl-pyrimidine] | 0.205 µM
CCc1cnc(OCc2cn(-c3cccc(F)c3)nn2)nc1 [Example 233, 5-Ethyl-2-[[1-(3-fluorophenyl)triazol-4-yl]methoxy]pyrimidine] | 0.075 µM
Cc1cnc(OCc2cn(-c3cccc(Br)c3)nn2)nc1 [Example 234, 2-[[1-(3-Bromophenyl)triazol-4-yl]methoxy]-5-methyl-pyrimidine] | 0.022 µM
Cc1ccccc1-n1cc(COc2ncccn2)nn1 [Example 236, 2-[[1-(o-Tolyl)triazol-4-yl]methoxy]pyrimidine] | > 10 µM
Cc1ccccc1-n1cc(COc2ncc(F)cn2)nn1 [Example 237, 5-Fluoro-2-[[1-(o-tolyl)triazol-4-yl]methoxy]pyrimidine] | 16.6 µM
COc1cnc(OCc2cn(-c3ccccc3C)nn2)nc1 [Example 238, 5-Methoxy-2-[[1-(o-tolyl)triazol-4-yl]methoxy]pyrimidine] | 5.99 µM
Cc1ccccc1-n1cc(COc2ncc(Cl)cn2)nn1 [Example 239, 5-Chloro-2-[[1-(o-tolyl)triazol-4-yl]methoxy]pyrimidine] | 4.8 µM
Cc1cnc(OCc2cn(-c3ccccc3C)nn2)nc1 [Example 240, 5-Methyl-2-[[1-(o-tolyl)triazol-4-yl]methoxy]pyrimidine] | 5.58 µM
CCc1cnc(OCc2cn(-c3ccccc3C)nn2)nc1 [Example 241, 5-Ethyl-2-[[1-(o-tolyl)triazol-4-yl]methoxy]pyrimidine] | 1.46 µM
Cc1cccc(-n2cc(COc3ncccn3)nn2)c1 [Example 242, 2-[[1-(m-Tolyl)triazol-4-yl]methoxy]pyrimidine] | 0.647 µM

Structure (SMILES) | IC50
Cc1cnc(OCc2cn(-c3cccc(C)c3)nn2)nc1 [Example 243, 5-Methyl-2-[[1-(m-tolyl)triazol-4-yl]methoxy]pyrimidine] | 0.014 µM
Cc1cccc(-n2cc(COc3nccc(C)n3)nn2)c1 [Example 244, 4-Methyl-2-[[1-(m-tolyl)triazol-4-yl]methoxy]pyrimidine] | 0.191 µM
CCc1cnc(OCc2cn(-c3cccc(C)c3)nn2)nc1 [Example 245, 5-Ethyl-2-[[1-(m-tolyl)triazol-4-yl]methoxy]pyrimidine] | 0.01 µM
Cc1cccc(-n2cc(COc3ncc(Cl)cn3)nn2)c1 [Example 246, 5-Chloro-2-[[1-(m-tolyl)triazol-4-yl]methoxy]pyrimidine] | 0.033 µM
Cc1cccc(-n2cc(COc3ncc(F)cn3)nn2)c1 [Example 247, 5-Fluoro-2-[[1-(m-tolyl)triazol-4-yl]methoxy]pyrimidine] | 0.34 µM
COc1cnc(OCc2cn(-c3cccc(C)c3)nn2)nc1 [Example 248, 5-Methoxy-2-[[1-(m-tolyl)triazol-4-yl]methoxy]pyrimidine] | 0.009 µM
Cc1cccc(-n2cc(COc3ncc(C(C)(C)O)cn3)nn2)c1 [Example 249, 2-[2-[[1-(m-Tolyl)triazol-4-yl]methoxy]pyrimidin-5-yl]propan-2-ol] | 0.289 µM
COCc1ccnc(OCc2cn(-c3cccc(C)c3)nn2)n1 [Example 250, 4-(Methoxymethyl)-2-[[1-(m-tolyl)triazol-4-yl]methoxy]pyrimidine] | 0.249 µM
Cc1cccc(-n2cc(COc3ncc(C)c(C)n3)nn2)c1 [Example 251, 4,5-Dimethyl-2-[[1-(m-tolyl)triazol-4-yl]methoxy]pyrimidine] | 0.002 µM
Cc1cccc(-n2cc(COc3ncc(F)c(C)n3)nn2)c1 [Example 252, 5-Fluoro-4-methyl-2-[[1-(m-tolyl)triazol-4-yl]methoxy]pyrimidine] | 0.065 µM
Cc1cccc(-n2cc(COc3ncc(Cl)c(C)n3)nn2)c1 [Example 253, 5-Chloro-4-methyl-2-[[1-(m-tolyl)triazol-4-yl]methoxy]pyrimidine] | 0.007 µM
Cc1cccc(-n2cc(COc3ncc(C)c(N)n3)nn2)c1 [Example 254, 5-Methyl-2-[[1-(m-tolyl)triazol-4-yl]methoxy]pyrimidin-4-amine] | 0.151 µM
CC(=O)c1cnc(OCc2cn(-c3cccc(C)c3)nn2)nc1 [Example 255, 1-[2-[[1-(m-Tolyl)triazol-4-yl]methoxy]pyrimidin-5-yl]ethanone] | 0.224 µM
Cc1ccc(-n2cc(COc3ncccn3)nn2)cc1 [Example 256, 2-[[1-(p-Tolyl)triazol-4-yl]methoxy]pyrimidine] | 4.42 µM
Cc1ccc(-n2cc(COc3ncc(F)cn3)nn2)cc1 [Example 257, 5-Fluoro-2-[[1-(p-tolyl)triazol-4-yl]methoxy]pyrimidine] | 2.69 µM
COc1cnc(OCc2cn(-c3ccc(C)cc3)nn2)nc1 [Example 258, 5-Methoxy-2-[[1-(p-tolyl)triazol-4-yl]methoxy]pyrimidine] | 0.225 µM
Cc1ccc(-n2cc(COc3ncc(Cl)cn3)nn2)cc1 [Example 259, 5-Chloro-2-[[1-(p-tolyl)triazol-4-yl]methoxy]pyrimidine] | 0.711 µM
Cc1ccc(-n2cc(COc3ncc(C)cn3)nn2)cc1 [Example 260, 5-Methyl-2-[[1-(p-tolyl)triazol-4-yl]methoxy]pyrimidine] | 0.271 µM
CCc1cnc(OCc2cn(-c3ccc(C)cc3)nn2)nc1 [Example 261, 5-Ethyl-2-[[1-(p-tolyl)triazol-4-yl]methoxy]pyrimidine] | 0.093 µM
CC(C)c1cccc(-n2cc(COc3ncccn3)nn2)c1 [Example 262, 2-[[1-(3-Isopropylphenyl)triazol-4-yl]methoxy]pyrimidine] | 0.358 µM
CC(C)c1cccc(-n2cc(COc3ncc(F)cn3)nn2)c1 [Example 263, 5-Fluoro-2-[[1-(3-isopropylphenyl)triazol-4-yl]methoxy]pyrimidine] | 0.227 µM
COc1cnc(OCc2cn(-c3cccc(C(C)C)c3)nn2)nc1 [Example 264, 2-[[1-(3-Isopropylphenyl)triazol-4-yl]methoxy]-5-methoxy-pyrimidine] | 0.006 µM
CC(C)c1cccc(-n2cc(COc3ncc(Cl)cn3)nn2)c1 [Example 265, 5-Chloro-2-[[1-(3-isopropylphenyl)triazol-4-yl]methoxy]pyrimidine] | 0.016 µM
Cc1cnc(OCc2cn(-c3cccc(C(C)C)c3)nn2)nc1 [Example 266, 2-[[1-(3-Isopropylphenyl)triazol-4-yl]methoxy]-5-methyl-pyrimidine] | 0.01 µM
CCc1cnc(OCc2cn(-c3cccc(C(C)C)c3)nn2)nc1 [Example 267, 5-Ethyl-2-[[1-(3-isopropylphenyl)triazol-4-yl]methoxy]pyrimidine] | 0.012 µM
